Test results taken from ChEMBL document CHEMBL4118102 (J Med Chem, 2018).

Tests used:
Influenza B virus = experiment: Antiviral activity against Influenza B virus (B/Perth/211/2001) infected in MDCK cells assessed as reduction in plaque formation measured after 3 days post infection by neutral red staining-based assay; type: functional, organism-based; conditions: 72 h
Neuraminidase [1] = biological target: T1, Neuraminidase (Influenza B virus, UniProt Q3S340); design: species or system Influenza B virus (B/Perth/211/2001)
Neuraminidase [2] = biological target: T2, Neuraminidase (Influenza A virus, UniProt B4URF0)
Neuraminidase [3] = biological target: T2, Neuraminidase; remark: listed apart in the source
Influenza A virus [4] = experiment: Antiviral activity against Influenza A virus (A/Mississippi/03/01 (H1N1)) infected in MDCK cells assessed as reduction in plaque formation measured after 3 days post infection by neutral red staining-based assay; type: functional, organism-based; conditions: 72 h
Neuraminidase [5] = biological target: T3, Neuraminidase (Influenza A virus, UniProt A5Z252); design: species or system Influenza A virus (A/chicken/Bangli/BBVD-563/2007(H5N1)), clade 2
Neuraminidase [6] = biological target: T3, Neuraminidase; design: species or system Influenza A virus (A/chicken/Bangli/BBVD-563/2007(H5N1)), clade 2; remark: listed apart in the source
Influenza A virus [7] = experiment: Antiviral activity against Influenza A virus (A/Fukui/45/04(H3N2)) infected in MDCK cells assessed as reduction in plaque formation measured after 3 days post infection by neutral red staining-based assay; type: functional, organism-based, Influenza A virus (A/Fukui/45/2004(H3N2)); conditions: 72 h
[8] = biological target: Neuraminidase (Influenza A virus) (UniProt A5Z252); conditions: Influenza A virus (A/chicken/Bangli/BBVD-563/2007(H5N1)); clade 2
[9] = biological target: Neuraminidase (Influenza A virus) (UniProt B4URF0); conditions: A/chicken/Vietnam/08/2004 (H5N1) clade 1
[10] = biological target: Neuraminidase (Influenza B virus) (UniProt Q3S340); conditions: Influenza B virus (B/Perth/211/2001)
Neuraminidase [11] = biological target: T2, Neuraminidase; remark: listed apart in the source
Neuraminidase [12] = biological target: T1, Neuraminidase; design: species or system Influenza B virus (B/Perth/211/2001); remark: listed apart in the source
Neuraminidase [13] = biological target: T2, Neuraminidase; remark: listed apart in the source
[14] = biological target: Neuraminidase (Influenza A virus (A/Memphis/1/1971(H3N2)), UniProt P03471); design: species or system Influenza A virus (A/Fukui/45/2004(H3N2))
Neuraminidase [15] = biological target: T2, Neuraminidase; remark: listed apart in the source
[16] = biological target: Neuraminidase (Influenza A virus (A/Memphis/1/1971(H3N2)), UniProt P03471); design: species or system Influenza A virus (A/Fukui/45/2004(H3N2)); remark: listed apart in the source
Neuraminidase [17] = biological target: T2, Neuraminidase; remark: listed apart in the source
Neuraminidase [18] = biological target: T2, Neuraminidase; remark: listed apart in the source
[19] = biological target: Neuraminidase (Influenza A virus (A/Memphis/1/1971(H3N2))) (UniProt P03471); conditions: Influenza A virus (A/Fukui/45/2004(H3N2))
Neuraminidase [20] = biological target: T2, Neuraminidase; remark: listed apart in the source
Influenza A virus [21] = experiment: Antiviral activity against Influenza A virus (A/Victoria/503/06) infected in MDCK cells assessed as reduction in plaque formation measured after 3 days post infection by neutral red staining-based assay; type: functional, organism-based
[22] = biological target: Neuraminidase (Influenza A virus) (UniProt B4URF0); conditions: A/Mississippi/03/01 (H1N1)
[23] = biological target: Neuraminidase (Influenza A virus) (UniProt B4URF0); conditions: A/swine/Shepparton/6/2009 (H1N1)
[24] = Influenza A virus, A/Victoria/503/06, MDCK, 72 h

Chain of Neuraminidase (Influenza B virus) (Q3S340 as listed by the source): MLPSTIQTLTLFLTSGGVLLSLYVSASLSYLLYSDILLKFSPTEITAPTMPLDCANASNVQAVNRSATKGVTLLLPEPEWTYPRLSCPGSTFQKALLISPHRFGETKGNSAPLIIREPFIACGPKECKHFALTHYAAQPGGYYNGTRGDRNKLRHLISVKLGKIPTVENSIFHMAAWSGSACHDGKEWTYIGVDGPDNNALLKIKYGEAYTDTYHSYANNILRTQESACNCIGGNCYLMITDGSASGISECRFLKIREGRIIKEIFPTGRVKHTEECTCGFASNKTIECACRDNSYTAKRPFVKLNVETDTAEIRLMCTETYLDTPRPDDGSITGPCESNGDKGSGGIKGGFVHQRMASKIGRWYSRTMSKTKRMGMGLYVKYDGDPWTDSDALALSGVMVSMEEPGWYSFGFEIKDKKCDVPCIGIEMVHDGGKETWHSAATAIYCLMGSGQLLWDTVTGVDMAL
T1 sequence (Q3S340 whole entry): as the sequence (Q3S340 as listed by the source) above
Chain of Neuraminidase (Influenza A virus (A/Memphis/1/1971(H3N2))) (P03471 whole entry): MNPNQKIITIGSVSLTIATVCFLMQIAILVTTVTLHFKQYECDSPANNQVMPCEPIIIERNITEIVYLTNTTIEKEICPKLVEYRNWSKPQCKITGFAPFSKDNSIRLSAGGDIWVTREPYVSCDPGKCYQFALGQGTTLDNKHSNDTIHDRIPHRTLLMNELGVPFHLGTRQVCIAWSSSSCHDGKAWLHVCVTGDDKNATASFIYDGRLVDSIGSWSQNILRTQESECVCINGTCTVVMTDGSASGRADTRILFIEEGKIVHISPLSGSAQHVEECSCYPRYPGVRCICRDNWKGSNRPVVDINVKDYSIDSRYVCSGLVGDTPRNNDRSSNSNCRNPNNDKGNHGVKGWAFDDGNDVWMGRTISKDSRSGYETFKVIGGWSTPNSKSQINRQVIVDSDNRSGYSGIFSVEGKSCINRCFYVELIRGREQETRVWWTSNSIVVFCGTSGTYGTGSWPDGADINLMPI
Chain of Neuraminidase (Influenza A virus (A/Memphis/1/1971(H3N2)), UniProt P03471) (P03471 whole entry): as above

Row | Compound | EC50 (Influenza B virus) | IC50 (Neuraminidase [1]) | IC50 (Neuraminidase [2]) | IC50 (Neuraminidase [3]) | EC50 (Influenza A virus [4]) | IC50 (Neuraminidase [5]) | IC50 (Neuraminidase [6]) | EC50 (Influenza A virus [7]) | T1/2 [8] | T1/2 [9] | T1/2 [10] | IC50 (Neuraminidase [11]) | IC50 (Neuraminidase [12]) | IC50 (Neuraminidase [13]) | IC50 [14] | IC50 (Neuraminidase [15]) | T1/2 [19] | EC50 (Influenza A virus [21]; [24]) | T1/2 [22] | T1/2 [23] | also measured
1 | CC(=O)N[C@@H]1C[C@@H](F)[C@](F)(C(=O)O)O[C@H]1[C@H](O)[C@H](O)CO | 1000 nM | 27 nM | 428 nM | 474 nM | 1000 nM | 535 nM | 583 nM | 100000 nM | 10.6 min | 13.7 min | 29.2 min | 69 nM | 76 nM | 985 nM | 318 nM | 48 nM | 13.4 min | 10000 nM | 26.7 min | 11.6 min | IC50 [16]: 313 nM; IC50 (Neuraminidase [17]): 490 nM; IC50 (Neuraminidase [18]): 1400 nM; IC50 (Neuraminidase [20]): 490 nM
2 | CC(=O)N[C@H]1[C@H]([C@H](O)[C@H](O)CO)OC(C(=O)O)=C[C@@H]1NC(=N)N [ZANAMIVIR] | 10 nM | – | – | – | ≤ 1 nM | – | – | 100 nM | 72.8 min | – | – | – | – | – | – | – | – | 0.1 to 1 nM | – | – | –
3 | CC(=O)N[C@@H]1[C@@H](O)[C@@H](F)[C@](F)(C(=O)O)O[C@H]1C[C@H](O)CO | 1000 to 10000 nM | 40 nM | – | – | 100 to 1000 nM | – | – | 10000 to 100000 nM | 12.3 min | 15 min | 68.7 min | – | 228 nM | – | – | – | 13.9 min | – | 29.2 min | 15.8 min | EC50 (Influenza A virus [21]; mdck): 10000 nM
4 | CC(=O)N[C@@H]1[C@@H](O)[C@@H](F)[C@](F)(C(=O)O)O[C@H]1[C@H](O)[C@H](O)CO | 1000 nM | 65 nM | – | – | 1000 nM | 889 nM | 863 nM | 100000 nM | 8.5 min | 12 min | 43.6 min | – | 414 nM | – | – | – | 17.6 min | 100000 nM | 24.8 min | 11.8 min | –
5 | CC(=O)N[C@@H]1[C@@H](O)[C@@H](F)[C@](F)(C(=O)O)O[C@H]1[C@H](O)[C@@H](C)O | 10000 to 100000 nM | – | – | – | 10000 to 100000 nM | – | – | – | 16.9 min | 17.2 min | > 240 min | – | 9190 nM | – | – | – | 29.7 min | ≥ 100000 nM | 37.5 min | 24.5 min | –
6 | CC(=O)N[C@@H]1[C@@H](O)[C@@H](F)[C@](F)(C(=O)O)O[C@H]1[C@H](O)CCO | 10000 to 100000 nM | – | 25800 nM | 25800 nM | 10000 nM | 28200 nM | 24500 nM | ≥ 100000 nM | 23.6 min | 19.4 min | 186 min | 2610 nM | 7620 nM | 21700 nM | 5010 nM | 8290 nM | 25.1 min | ≥ 100000 nM | 30.4 min | 17.8 min | IC50 [16]: 28700 nM; IC50 (Neuraminidase [17]): 22400 nM; IC50 (Neuraminidase [18]): 17000 nM; IC50 (Neuraminidase [20]): 22000 nM
